Where “and” joins values, the source holds several entries; their conditions need not be identical. Equal entries are not always repeated.

For this experiment, the target named is T1, RIPK2 (full length FLAG His tagged RIPK2; RIP2 kinase) (Homo sapiens, UniProt O43353).
T1 construct: Full length FLAG His tagged RIPK2 was purified from a Baculovirus expression system; FLAG (N); 6His (N); made in house; host or cells: Spodoptera frugiperda (Sf9) insect cells, baculovirus
Kind of experiment: Fluorescent polarization based binding assay at the ATP binding pocket of RIPK2. The following applies: competition with fluorescently labeled ATP competitive ligand (5 nM); mean of a minimum of 2 experiments; approximate values; read-out: mean pIC50 (RIP2 kinase inhibition) (converted). The text has this:
A fluorescent polarization based binding assay was developed to quantitate interaction of novel test compounds at the ATP binding pocket of RIPK2, by competition with a fluorescently labeled ATP competitive ligand. Full length FLAG His tagged RIPK2 was purified from a Baculovirus expression system and was used at a final assay concentration of twice the KDapparent. A fluorescent labeled ligand (5-({[2-({[3-({4-[(5-hydroxy-2-methylphenyl)amino]-2-pyrimidinyl}amino)phenyl]carbonyl}amino)ethyl] amino}carbonyl)-2-(6-hydroxy-3-oxo-3H-xanthen-9-yl)benzoic acid, prepared as described in WO2011/120025) was used at a final assay concentration of 5 nM. Both the enzyme and ligand were prepared in solutions in 50 mM HEPES pH7.5, 150 mM NaCl, 10 mM MgCl2, 1 mM DTT, and 1 mM CHAPS. Test compounds were prepared in 100% DMSO and 100 nL was dispensed to individual wells of a multiwell plate. Next, 5 ul RIPK2 was added to the test compounds at twice the final assay concentration, and incubated at rt for 10 min. Following the incubation, 5 ul of the fluorescent labeled ligand solution, was added to each reaction, at twice the final assay concentration, and incubated at rt for at least 10 min. Finally, samples were read on an instrument capable of measuring fluorescent polarization. Test compound inhibition was expressed as percent (%) inhibition of internal assay controls.
For concentration/dose response experiments, normalized data were fit and pIC50S determined using conventional techniques. The pIC50S are averaged to determine a mean value, for a minimum of 2 experiments.
Full-length human RIPK2 (receptor-interacting serine-threonine kinase 2) cDNA was purchased from Invitrogen (Carlsbad, Calif., USA, Clone ID:IOH6368, RIPK2-pENTR 221). Gateway® LR cloning was used to site-specifically recombine RIPK2 downstream to an N-terminal FLAG-6His contained within the destination vector pDEST8-FLAG-His6 according to the protocol described by Invitrogen. Transfection into Spodoptera frugiperda (Sf9) insect cells was performed using Cellfectin® (Invitrogen), according to the manufacturer's protocol.
Sf9 cells were grown in Excell 420 (SAFC Biosciences, Lenexa, Kans., US; Andover, Hampshire UK) growth media at 27° C., 80 rpm in shake flask until of a sufficient volume to inoculate a bioreactor. […] The insect cells were infected with Baculovirus at a multiplicity of infection (MOI) of 12.7. The cultivation was continued for a 43 hour expression phase. The infected cells were removed from the growth media by centrifugation at 2500 g using a Viafuge (Carr) continuous centrifuge at a flow rate of 80 litres/hour. The cell pellet was immediately frozen and subsequently supplied for purification.
Purification Procedure I: 9.83×10^10 Insect cells were re-suspended in 1.4 L lysis buffer (50 mM Tris (pH 8.0), 150 mM NaCl, 0.5 mM NaF, 0.1% Triton X-100, 1 mL/litre Protease Inhibitor Cocktail Set III (available from EMD Group; CalBiochem/Merck Biosciences, Gibbstown, N.J., US; Damstadt, Germany) and processed by dounce homogenization on ice. The suspension was then clarified by centrifugation at 47,900 g for 2 h, at 4° C. The lysate was decanted from the insoluble pellet and loaded at a linear flow rate of 16 cm/h onto a 55 mL FLAG-M2 affinity column (2.6×10.4 cm) that had been pre-equilibrated with 10 column volumes buffer A (50 mM Tris (pH 8.0), 150 mM NaCl, 0.5 mM NaF, 1 mL/litre Protease Inhibitor Cocktail Set III). […]

T1 sequence (O43353 whole entry): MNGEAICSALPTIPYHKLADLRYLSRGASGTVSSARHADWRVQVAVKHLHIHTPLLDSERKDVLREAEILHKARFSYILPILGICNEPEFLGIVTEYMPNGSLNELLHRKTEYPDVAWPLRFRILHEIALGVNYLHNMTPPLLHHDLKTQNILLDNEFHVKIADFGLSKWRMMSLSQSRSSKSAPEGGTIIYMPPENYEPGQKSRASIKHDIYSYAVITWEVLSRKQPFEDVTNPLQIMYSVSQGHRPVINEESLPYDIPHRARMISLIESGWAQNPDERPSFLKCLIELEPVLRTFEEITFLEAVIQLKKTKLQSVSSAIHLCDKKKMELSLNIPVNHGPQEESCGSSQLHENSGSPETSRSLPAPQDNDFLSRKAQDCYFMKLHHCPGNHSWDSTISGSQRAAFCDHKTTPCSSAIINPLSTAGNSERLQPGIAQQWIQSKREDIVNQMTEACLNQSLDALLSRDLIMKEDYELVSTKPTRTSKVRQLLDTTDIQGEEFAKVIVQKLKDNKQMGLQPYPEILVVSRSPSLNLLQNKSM

As for `COc1cc2ncnc(Nc3ccc4scnc4c3)c2cc1S(=O)(=O)C(C)(C)C` [Example 16, N-(6-(tert-butylsulfonyl)-7-methoxyquinazolin-4-yl)benzo[d]thiazol-5-amine], the IC50 was ~3.16 nM and 1 to 100 nM.

As to `CC(C)S(=O)(=O)c1ccc2ncnc(Nc3ccc4scnc4c3)c2c1` [Example 6, N-1,3-benzothiazol-5-yl-6-[(1-methylethyl)sulfonyl]-4-quinazolinamine], the IC50 was 1 to 100 nM.

`CC(C)(C)S(=O)(=O)c1cc2c(Nc3ccc4scnc4c3)ncnc2cc1OCCO` [Example 21, 2-((4-(benzo[d]thiazol-5-ylamino)-6-(tert-butylsulfonyl)quinazolin-7-yl)oxy)ethanol]: the IC50 was 1 to 100 nM.

Consider `CC(C)(C)S(=O)(=O)c1ccc2ncnc(Nc3ccc4scnc4c3)c2c1` [Example 4, N-1,3-benzothiazol-5-yl-6-[(1,1-dimethylethyl)sulfonyl]-4-quinazolinamine], for which the IC50 is ~31.6 nM and 1 to 100 nM.

Turning to `CC(C)(C)S(=O)(=O)c1cc2c(Nc3ccc4scnc4c3)ncnc2cc1OCC(F)(F)F` [Example 23, N-(6-(tert-butylsulfonyl)-7-(2,2,2-trifluoroethoxy)quinazolin-4-yl)benzo[d]thiazol-5-amine], the IC50 is 1 to 100 nM.
